Reference: US12247019B2 (Centaurus Therapeutics, priority 2018, dated 2025)
Where two headings read alike, the source gives them in different places.

Experiments:
Des1 [1] = molecular target: T1, Des1 (Homo sapiens, UniProt O15121); experiment: Jurkat T cell measurement of conversion of dihydroceramide to ceramide (Des1 activity, LC-MS/MS of NBD-C6-ceramide); format: cell-based; parameters: Jurkat clone E6-1 cells were grown and then seeded at 10^6 cells/mL in a 96-well plate; endogenous in cells; host or cells: Jurkat clone E6-1; details: 0.5 uM compound; Jurkat clone E6-1 cells, 10 μM NBD-C6-dihydroceramide, 3 hours at 37° C.; read-out: Des1 % Inhib (0.5 uM)
T1 sequence (O15121 1-323): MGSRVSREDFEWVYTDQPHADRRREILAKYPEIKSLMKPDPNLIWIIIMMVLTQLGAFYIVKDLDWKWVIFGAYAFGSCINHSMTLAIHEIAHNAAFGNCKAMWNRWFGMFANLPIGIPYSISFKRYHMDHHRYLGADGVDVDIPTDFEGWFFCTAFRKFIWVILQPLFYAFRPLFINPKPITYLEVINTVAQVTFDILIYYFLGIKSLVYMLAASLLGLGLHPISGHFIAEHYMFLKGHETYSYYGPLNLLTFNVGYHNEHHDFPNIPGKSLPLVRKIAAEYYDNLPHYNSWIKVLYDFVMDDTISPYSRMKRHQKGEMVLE
Experimental: (§1) Jurkat T Cell Measurement of Conversion of Dihydroceramide to Ceramide
Jurkat clone E6-1 cells were grown and then seeded at 10^6 cells/mL in a 96-well plate (400 μL in each well. The cells were administered 100 μL of cell culture media containing 50-μM NBD-C6-dihydroceramide (Des1 substrate), affording a final concentration of substrate of 10 μM. The cells were incubated with substrate at 4° C. for 30 minutes. Following the incubation at 4° C., the cell suspension was centrifuged at 1200 rpm for 3 minutes, and the cell pellet is resuspended in 400 μL of fresh media containing various concentrations of either fenretinide (known Des1 inhibitor control compound) or test article. The final concentrations of control compound and test compounds were tested in a range from 0-10 μM. The cells and compounds were incubated at 37° C. for 3 hours. Following the 3-hour incubation, the plate was centrifuged at 2500 g for 3 minutes at 4° C., followed by collection and transfer of 200 μL of the supernatant to a new 96-well plate with 300 μL of methanol an containing appropriate internal standards for liquid chromatography/tandem mass spectroscopy (LC/MS/MS) analysis (internal standard: 500 nM labetalol and 100 nM alprazolam). The samples were vortexed for 2 minutes followed by centrifugation at 3,220 g for 20 minutes. […]

Des1 [2] = molecular target: T1, Des1; experiment: as above; format: cell-based; parameters: endogenous in cells; host or cells: Jurkat clone E6-1; details: Jurkat clone E6-1 cells; for inhibition at 0.5 µM: 0.5 uM compound, read-out: Des1 % Inhib (0.5 uM)
Experimental: as §1
Jurkat clone E6-1 cells were grown and then seeded at 10^6 cells/mL in a 96-well plate (400 μL in each well. The cells were administered 100 μL of cell culture media containing 50-μM NBD-C6-dihydroceramide (Des1 substrate), affording a final concentration of substrate of 10 μM. The cells were incubated with substrate at 4° C. for 30 minutes. Following the incubation at 4° C., the cell suspension was centrifuged at 1200 rpm for 3 minutes, and the cell pellet is resuspended in 400 μL of fresh media containing various concentrations of either fenretinide (known Des1 inhibitor control compound) or test article. The final concentrations of control compound and test compounds were tested in a range from 0-10 μM. The cells and compounds were incubated at 37° C. for 3 hours. Following the 3-hour incubation, the plate was centrifuged at 2500 g for 3 minutes at 4° C., followed by collection and transfer of 200 μL of the supernatant to a new 96-well plate with 300 μL of methanol an containing appropriate internal standards for liquid chromatography/tandem mass spectroscopy (LC/MS/MS) analysis (internal standard: 500 nM labetalol and 100 nM alprazolam). The samples were vortexed for 2 minutes followed by centrifugation at 3,220 g for 20 minutes. Following centrifugation, 200 μL of the supernatant was transferred to a new 96-well plate for LC-MS/MS analysis to determine the amount of NBD-C6-ceramide (Des1 product) produced. The assay was typically performed in duplicate. A reduction of at least 30% compared to vehicle control (0 μM test article) is indicative of an active compound, and a reduction of 75% compared to vehicle control is preferred.

CFTR-KO mice = details: Guilbault et al. 2008, 2009, cited from earlier work
[3] = tested on: insulin-stimulated Akt phosphorylation in C2C12 myotubes; experiment: C2C12 myotube assay of insulin-stimulated phosphorylation of Akt; format: cell-based; details: 0.75 mM BSA-conjugated palmitate 16 hours, insulin 100 nM 10 minutes; read-out: half-maximal effective concentration (EC50) for increasing insulin-stimulated Akt phosphorylation in the presence of palmitate
Experimental: C2C12 Myotube Assay of Insulin-Stimulated Phosphorylation of Akt:
C2C12 myotubes are treated with 0.75 mM BSA-conjugated palmitate for 16 hours in the presence or absence of 7 non-zero concentrations of fenretinide (Des1 inhibitor control compound) or various test articles, followed by a 10-minute stimulation with insulin (100 nM). Cells are subsequently harvested and boiled in reducing SDS sample buffer and subjected to SDS-PAGE followed by detection of phosphorylated Akt, total Akt, and a suitable loading control (e.g. actin or GAPDH) by western blot using fluorescently-conjugated secondary antibodies. Band intensities are quantitated by an Odyssey imaging system (Li—COR), but could also be performed using HRP-conjugated secondary antibodies/enhanced chemiluminescence or by colorimetric readout.
Moreover, while currently contemplated for SDS-PAGE/immunoblot format, this assay could be adapted to ELISA or in-cell western (immunocytochemistry) formats for higher throughput testing of compounds. An increase of 30% compared to vehicle control (0 μM test article) is indicative of an active compound, and an increase of 50% compared to control is preferred. […] Des1 inhibitors disclosed herein are expected to be effective in this assay.

[4] = 10 μM NBD-C6-dihydroceramide, 3 hours at 37° C.
[5] = 10 μM NBD-C6-dihydroceramide, 3 hours at 37° C., read-out: Des1 IC50

Structure (SMILES) | inhibition at 0.5 µM (Des1 [2]; [4]) [%] | IC50 (Des1 [2]; [5]) [nM] | other results
O=S(=O)(Nc1ccc(O)cn1)N1CCN(c2ccc(F)cc2)CC1 [Example 72] | – | – | inhibition at 0.5 µM (Des1 [1]): 50.2%
O=S(=O)(Nc1ccc(O)cn1)N1CCN(c2ccc(Cl)cn2)CC1 [Example 73, 4-(5-Chloropyridin-2-yl)-N-(5-hydroxypyridin-2-yl)piperazine-1-sulfonamide] | 41.9 | – | –
O=S(=O)(Nc1ccc(O)cn1)N1CCN(c2ccc(Cl)cc2)CC1 [Example 74, 4-(4-chlorophenyl)-N-(5-hydroxypyridin-2-yl)piperazine-1-sulfonamide] | 72.8 | – | –
O=S(=O)(Nc1ccc(O)cn1)N1CCN(c2ccc(C(F)(F)F)cc2)CC1 [Example 75, N-(5-hydroxypyridin-2-yl)-4-(4-(trifluoromethyl)phenyl)-piperazine-1-sulfonamide] | 91.2 | 62 to 86 | –
O=C(NCc1ccc(Cl)cc1)Nc1ccc(O)cn1 [Example 76, 1-[(4-chlorophenyl)methyl]-3-(5-hydroxypyridin-2-yl)urea] | 75.1 | – | –
O=C(Nc1ccc(O)cn1)N1CCN(Cc2ccc(F)c(F)c2)CC1 [Example 77, 4-[(3,4-difluorophenyl)methyl]-N-(5-hydroxypyridin-2-yl)piperazine-1-carboxamide] | 91.9 | 35 | –
O=C(Nc1ccc(O)cn1)N1CCN(c2cc(F)ccn2)CC1 [Example 78, 4-(4-fluoropyridin-2-yl)-N-(5-hydroxypyridin-2-yl)piperazine-1-carboxamide] | 93.4 | 19 to 64 | –
O=C(Nc1ccc(O)cn1)N1CCN(c2ncc(F)cc2F)CC1 [Example 79, 4-(3,5-difluoropyridin-2-yl)-N-(5-hydroxypyridin-2-yl) piperazine-1-carboxamide] | 93.8 | 7.6 to 70 | –
O=C(Nc1ccc(O)cn1)N1CCN(c2cnn(-c3ccccc3)c2)CC1 [Example 80, N-(5-hydroxypyridin-2-yl)-4-(1-phenyl-1H-pyrazol-4-yl)piperazine-1-carboxamide] | 56.9 | – | –
Cn1ncc2c(N3CCN(C(=O)Nc4ccc(O)cn4)CC3)cccc21 [Example 81, N-(5-hydroxypyridin-2-yl)-4-(1-methyl-1H-indazol-4-yl)piperazine-1-carboxamide] | 77.9 | – | –
Cn1ncc2ccc(N3CCN(C(=O)Nc4ccc(O)cn4)CC3)cc21 [Example 82, N-(5-hydroxypyridin-2-yl)-4-(1-methyl-1H-indazol-6-yl)piperazine-1-carboxamide] | 78.4 | – | –
O=C(Nc1ccc(O)cn1)N1CCN(c2nc(F)c(F)cc2F)CC1 [Example 83, N-(5-hydroxypyridin-2-yl)-4-(3,5,6-trifluoropyridin-2-yl) piperazine-1-carboxamide] | 94.9 | 65 | –
O=C(Nc1ccc(O)cn1)N1CCCN(c2ccc(F)cn2)CC1 [Example 84, 4-(5-fluoropyridin-2-yl)-N-(5-hydroxypyridin-2-yl)-1,4-diazepane-1-carboxamide] | – | 100 | –
O=C(Nc1ccc(O)cn1)N1CCCN(c2ccc(Cl)cn2)CC1 [Example 85, 4-(5-chloropyridin-2-yl)-N-(5-hydroxypyridin-2-yl)-1,4-diazepane-1-carboxamide] | – | 55 | –
O=C(Nc1ccc(O)cn1)N1CCCN(c2ccc(C(F)(F)F)cn2)CC1 [Example 86, N-(5-hydroxypyridin-2-yl)-4-[5-(trifluoromethyl)pyridin-2-yl]-1,4-diazepane-1-carboxamide] | 84.6 | 78 | –
O=C(Nc1ccc(O)cn1)N1CCCN(c2ccc(F)c(F)c2)CC1 [Example 87, 4-(3,4-difluorophenyl)-N-(5-hydroxypyridin-2-yl)-1,4-diazepane-1-carboxamide] | 92.7 | 21 | –
O=C(Oc1ccc(O)cn1)N1CCN(c2ccc(C(F)(F)F)cn2)CC1 [Example 88, 5-hydroxypyridin-2-yl 4-[5-(trifluoromethyl)pyridin-2-yl]piperazine-1-carboxylate] | 92.7 | 25 | –
O=C(Nc1ccc(O)cn1)c1cccc(-c2ccccc2)c1 [Example 89, N-(5-hydroxypyridin-2-yl)-[1,1-biphenyl]-3-carboxamide] | 93 | 2.9 | –
Cn1cc(C2CCC(C(=O)Nc3ccc(O)cn3)CC2)cn1 (centres unmarked) [Example 90, N-(5-hydroxypyridin-2-yl)-4-(1-methyl-1H-pyrazol-4-yl)cyclohexane-1-carboxamide] | 39.2 | – | –
CC1=C(/C=C/C(C)=C/C=C/C(C)=C/C(=O)Nc2ccc(O)cc2)C(C)(C)CCC1 [fenretinide] | – | – | susceptibility to infection with Pseudomonas aeruginosa (CFTR-KO mice; CFTR-KO mice): reduce susceptibility to infection; ratio of lung arachidonic acid (AA) to docosahexaenoic acid (DHA) (CFTR-KO mice; lungs of CFTR-KO mice): normalize this ratio; EC50 [3]: 600 nM; IC50 (Des1 [2]; read-out: half-maximal inhibitory concentration (IC50)): 100 to 250 nM
